Data taken from ChEMBL document CHEMBL4513135, “CO-ADD screening of IQOG CSIS (Spain) compounds”.
Converted amounts (≈) assume the structure as drawn.

What was measured:
HEK293 = experiment: cells; type: functional; settings: Homo sapiens, ATCC CRL1573, HEK293; ASSAY_TEST Inhibition of Cell Viability; detection method Resazurin; Fluorescence (ex560/em590); MEDIA DMEM with 10% FBS; plate type 384well; TC; CORNING #3712; time 18 hr
Staphylococcus aureus = experiment: microbe, parasite or virus in culture; settings: ATCC 43300, 18 h, ASSAY_TEST Inhibition of Bacterial Growth, detection method Absorption (OD600), MEDIA CAMHB, plate type 384well, NBS, CORNING #3640
Description: Antibacterial activity against Staphylococcus aureus MRSA ATCC 43300 (CO-ADD:GP_020); MIC in CAMBH media, using NBS plates, by OD(600)

Escherichia coli = experiment: microbe, parasite or virus in culture; settings: ATCC 25922, 18 h, ASSAY_TEST Inhibition of Bacterial Growth, detection method Absorption (OD600), MEDIA CAMHB, plate type 384well, NBS, CORNING #3640
Description: Antibacterial activity against Escherichia coli ATCC 25922 (CO-ADD:GN_001); MIC in CAMBH media using NBS plates, by OD(600)

Klebsiella pneumoniae = experiment: microbe, parasite or virus in culture; settings: ATCC 700603, 18 h, ASSAY_TEST Inhibition of Bacterial Growth, detection method Absorption (OD600), MEDIA CAMHB, plate type 384well, NBS, CORNING #3640
Description: Antibacterial activity against Klebsiella pneumoniae MDR ATCC 70063 (CO-ADD:GN_003); MIC in CAMBH media using NBS plates, by OD(600)

Pseudomonas aeruginosa = experiment: microbe, parasite or virus in culture; settings: ATCC 27853, 18 h, ASSAY_TEST Inhibition of Bacterial Growth, detection method Absorption (OD600), MEDIA CAMHB, plate type 384well, NBS, CORNING #3640
Description: Antibacterial activity against Pseudomonas aeruginosa ATCC 27853 (CO-ADD:GN_042); MIC in CAMBH media using NBS plates, by OD(600)

Acinetobacter baumannii = experiment: microbe, parasite or virus in culture; settings: ATCC 19606, 18 h, ASSAY_TEST Inhibition of Bacterial Growth, detection method Absorption (OD600), MEDIA CAMHB, plate type 384well, NBS, CORNING #3640
Description: Antibacterial activity against Acinetobacter baumannii ATCC 19606 (CO-ADD:GN_034); MIC in CAMBH media using NBS plates, by OD600

Candida albicans = experiment: microbe, parasite or virus in culture; settings: ATCC 90028, ASSAY_TEST Inhibition of Fungal Growth, detection method Absorption (OD530), plate type 384well, NBS, CORNING #3640
Description: Antifungal activity against Candida albicans ATCC 90028 (CO-ADD:FG_001); MIC in YNB media using NBS plates, by OD630

Description for Cryptococcus neoformans: Antifungal activity against Cryptococcus neoformans H99 ATCC 208821 (CO-ADD:FG_002); MIC in YNB media using NBS plates, by Resazurin OD(600-570)

Structure (SMILES) | CC50 (HEK293) | MIC (Cryptococcus neoformans) | MIC (Staphylococcus aureus) | MIC (Escherichia coli) | MIC (Klebsiella pneumoniae) | MIC (Pseudomonas aeruginosa) | MIC (Acinetobacter baumannii) | MIC (Candida albicans)
C#CCNc1nc(NCCC2CCN(Cc3ccccc3)CC2)c(C#N)c(-c2ccccc2)c1C#N | 11.3 µg/mL (≈ 23.8 µM) | > 32 µg/mL | > 32 µg/mL | > 32 µg/mL | > 32 µg/mL | > 32 µg/mL | > 32 µg/mL | > 32 µg/mL
Cl.Nc1c2c(nc3[nH]c4ccccc4c13)CCCC2 | 4.74 µg/mL | > 32 µg/mL | > 32 µg/mL | > 32 µg/mL | > 32 µg/mL | 16 µg/mL | > 32 µg/mL | > 32 µg/mL
C#CCN(C)c1nc(NCCCCC2CCN(Cc3ccccc3)CC2)c(C#N)c(-c2ccccc2)c1C#N.Cl | 4.12 µg/mL | 16 µg/mL | > 32 µg/mL | > 32 µg/mL | > 32 µg/mL | > 32 µg/mL | > 32 µg/mL | > 32 µg/mL
Nc1n[nH]c2nc3[nH]nc(N)c3c(-c3ccccc3)c12 | 8.23 µg/mL (≈ 31 µM) | > 32 µg/mL | > 32 µg/mL | > 32 µg/mL | > 32 µg/mL | > 32 µg/mL | > 32 µg/mL | > 32 µg/mL
CC1=C(C(=O)OC(C)(C)C)C(c2ccccc2)C(C#N)=C(N)O1 (stereo not given) | > 32 µg/mL | > 32 µg/mL | > 32 µg/mL | > 32 µg/mL | > 32 µg/mL | > 32 µg/mL | > 32 µg/mL | 32 µg/mL (≈ 102 µM)
COc1ccc2[nH]c3nc4c(c(N)c3c2c1)CCCC4 | 15 µg/mL (≈ 56.1 µM) | 32 µg/mL (≈ 120 µM) | > 32 µg/mL | > 32 µg/mL | > 32 µg/mL | 32 µg/mL (≈ 120 µM) | > 32 µg/mL | > 32 µg/mL
C#CCNCc1cc2cc(OCc3ccccc3)ccc2[nH]1.Cl | 4.04 µg/mL | > 32 µg/mL | > 32 µg/mL | > 32 µg/mL | > 32 µg/mL | > 32 µg/mL | > 32 µg/mL | > 32 µg/mL
CN(Cc1cn(-c2ccccc2)nn1)Cc1cc2cc(OCCCC3CCN(Cc4ccccc4)CC3)ccc2n1C.Cl | 3.55 µg/mL | > 32 µg/mL | > 32 µg/mL | > 32 µg/mL | > 32 µg/mL | > 32 µg/mL | > 32 µg/mL | > 32 µg/mL
Brc1nc(Br)c(Br)[nH]1 | > 32 µg/mL | > 32 µg/mL | > 32 µg/mL | > 32 µg/mL | > 32 µg/mL | > 32 µg/mL | > 32 µg/mL | > 32 µg/mL
O=C(CI)NCc1ccccc1 | 8.25 µg/mL (≈ 30 µM) | 16 µg/mL (≈ 58.2 µM) | > 32 µg/mL | > 32 µg/mL | > 32 µg/mL | > 32 µg/mL | > 32 µg/mL | > 32 µg/mL
C#CCNc1nc(Cl)c(C#N)cc1C#N | 22.4 µg/mL (≈ 103 µM) | > 32 µg/mL | > 32 µg/mL | > 32 µg/mL | > 32 µg/mL | > 32 µg/mL | > 32 µg/mL | 32 µg/mL (≈ 148 µM)
C#CCN(C)c1nc(NCCCC2CCN(Cc3ccccc3)CC2)c(C#N)c(-c2ccccc2)c1C#N.Cl | 8.06 µg/mL | 32 µg/mL | > 32 µg/mL | > 32 µg/mL | > 32 µg/mL | > 32 µg/mL | > 32 µg/mL | > 32 µg/mL
OCc1ccc(O)c2ncccc12 | 17.3 µg/mL (≈ 98.8 µM) | 16 µg/mL (≈ 91.3 µM) | > 32 µg/mL | > 32 µg/mL | > 32 µg/mL | 32 µg/mL (≈ 183 µM) | > 32 µg/mL | 16 µg/mL (≈ 91.3 µM)
N#Cc1c(N)[n+]([O-])c2ccccc2[n+]1[O-] | > 32 µg/mL | > 32 µg/mL | > 32 µg/mL | 16 µg/mL (≈ 79.1 µM) | > 32 µg/mL | > 32 µg/mL | > 32 µg/mL | > 32 µg/mL
CC#CCN(C)Cc1cc2cc(OCc3ccccc3)ccc2[nH]1.O=C(O)C(=O)O | > 32 µg/mL | > 32 µg/mL | > 32 µg/mL | > 32 µg/mL | > 32 µg/mL | > 32 µg/mL | > 32 µg/mL | > 32 µg/mL
C#CCNc1nc(NCCCC2CCN(Cc3ccccc3)CC2)c(C#N)c(-c2ccccc2)c1C#N | 16 µg/mL (≈ 32.7 µM) | 32 µg/mL (≈ 65.5 µM) | > 32 µg/mL | > 32 µg/mL | > 32 µg/mL | > 32 µg/mL | > 32 µg/mL | > 32 µg/mL
C=C=CCN(C)Cc1cc2cc(OCc3ccccc3)ccc2n1C.O=C(O)C(=O)O | 1.61 µg/mL | > 32 µg/mL | > 32 µg/mL | > 32 µg/mL | > 32 µg/mL | > 32 µg/mL | > 32 µg/mL | > 32 µg/mL
N#Cc1c(N)nc(Sc2ccccc2)c(C#N)c1-c1ccccc1 | > 32 µg/mL | > 32 µg/mL | > 32 µg/mL | > 32 µg/mL | > 32 µg/mL | > 32 µg/mL | > 32 µg/mL | > 32 µg/mL
CCOC(=O)c1cc2cc(OCCCC3CCN(Cc4ccccc4)CC3)ccc2[nH]1.Cl | 16.5 µg/mL | > 32 µg/mL | > 32 µg/mL | > 32 µg/mL | > 32 µg/mL | > 32 µg/mL | > 32 µg/mL | > 32 µg/mL
N#CC(C#N)=Cc1cccc([N+](=O)[O-])c1 | > 32 µg/mL | > 32 µg/mL | > 32 µg/mL | > 32 µg/mL | > 32 µg/mL | 32 µg/mL (≈ 161 µM) | > 32 µg/mL | > 32 µg/mL
CCOC(=O)C(=Cc1ccccc1)C(C)=O | 13.5 µg/mL (≈ 61.9 µM) | 8 µg/mL (≈ 36.7 µM) | > 32 µg/mL | > 32 µg/mL | > 32 µg/mL | > 32 µg/mL | > 32 µg/mL | 16 µg/mL (≈ 73.3 µM)
CCOC(=O)c1c(C)nc(NCCCCC2CCN(Cc3ccccc3)CC2)c(C#N)c1-c1ccccc1 | 18.8 µg/mL (≈ 36.8 µM) | > 32 µg/mL | > 32 µg/mL | > 32 µg/mL | > 32 µg/mL | > 32 µg/mL | > 32 µg/mL | > 32 µg/mL
CC(C)(C)OC(=O)n1c(COC(=O)NC2CCN(Cc3ccccc3)CC2)cc2cc(OCc3ccccc3)ccc21.O=C(O)C(=O)O | 9.19 µg/mL | 16 µg/mL | > 32 µg/mL | > 32 µg/mL | > 32 µg/mL | > 32 µg/mL | > 32 µg/mL | 32 µg/mL
COc1ccc(CCl)c2cccnc12 | > 32 µg/mL | > 32 µg/mL | > 32 µg/mL | > 32 µg/mL | > 32 µg/mL | > 32 µg/mL | > 32 µg/mL | 32 µg/mL (≈ 154 µM)
N#CC1=C(N)Oc2c(ccc3ccccc23)C1c1ccccc1[N+](=O)[O-] (stereo not given) | > 32 µg/mL | > 32 µg/mL | > 32 µg/mL | > 32 µg/mL | > 32 µg/mL | > 32 µg/mL | > 32 µg/mL | > 32 µg/mL
